Among the data in US20090155376A1, “PROTEIN HYDROLYSATE WITH ANTIDIABETIC EFFECT” (MG PHARMA INC., priority 2004, published 2009) are Fatalities values, retold here.

Where a SMILES comes first, the peptide text is derived from it.

The data set concerns male and female ICR mice. The experiment in a line: Safety test, oral administration to mice. It is filed as in vivo. The conditions noted are these: 10 g/kg (maximum allowable dose) or greater. The text has this:
The peptide having the amino acid sequence Val-Val-Tyr-Pro (SEQ. ID. No. 1) prepared in Example 2 was orally administered to male and female ICR mice in an amount of 10 g/kg (maximum allowable dose) or greater, and there were no fatalities, thereby establishing the safety of the peptide.

For `CC(C)[C@H](N)C(=O)N[C@H](C(=O)N[C@@H](Cc1ccc(O)cc1)C(=O)N1CCC[C@H]1C(=O)O)C(C)C` [Peptide (VVYP), Val-Val-Tyr-Pro] (H-VVYP-OH), the Fatalities entry was “no fatalities”.
